pIC50: −log10 of the molar value.
Biological target: T1, Full length (FL) 3-Phosphoglycerate Dehydrogenase (PHGDH) (Homo sapiens, UniProt O43175)
T1 construct: Full length (FL) 3-Phosphoglycerate Dehydrogenase (PHGDH) Diaphorase coupled assay (500 uM NAD)
T1 sequence (O43175 1-533): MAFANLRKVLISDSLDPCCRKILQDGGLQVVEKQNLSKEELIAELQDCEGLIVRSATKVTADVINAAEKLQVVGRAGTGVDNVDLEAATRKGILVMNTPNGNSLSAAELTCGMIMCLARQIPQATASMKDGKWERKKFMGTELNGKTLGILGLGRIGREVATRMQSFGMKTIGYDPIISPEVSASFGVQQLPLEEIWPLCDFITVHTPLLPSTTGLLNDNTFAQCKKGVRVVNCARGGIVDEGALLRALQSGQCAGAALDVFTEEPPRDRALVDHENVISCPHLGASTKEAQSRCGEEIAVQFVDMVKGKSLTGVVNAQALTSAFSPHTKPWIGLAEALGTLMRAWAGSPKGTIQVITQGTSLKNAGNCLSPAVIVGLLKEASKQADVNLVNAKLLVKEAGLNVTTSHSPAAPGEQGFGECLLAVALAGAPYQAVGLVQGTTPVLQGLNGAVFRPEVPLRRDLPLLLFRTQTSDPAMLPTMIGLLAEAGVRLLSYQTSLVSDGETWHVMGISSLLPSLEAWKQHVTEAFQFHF
Test: Full length (FL) PHGDH Diaphorase coupled assay (500 uM NAD)
Format: biochemical
Settings: 5 nM PHGDH, 30° C., 60 minutes
Protocol: Full length (FL) 3-Phosphoglycerate Dehydrogenase (PHGDH) Diaphorase coupled assay (500 uM NAD)
PHGDH activity was determined by detecting the NADH produced during the reaction. Diaphorase was used to catalyze the oxidation of NADH with the concomitant reduction of resazurin to the fluorescent product resorufin. Resorufin fluorescence quantitatively reflected the production of NADH by the PHGDH reaction. To drive the forward reaction, two enzymes in the serine synthesis pathway subsequent to PHGDH, Phosphoserine aminotransferase (PSAT1) and phosphoserine phosphatase (PSPH) were also added to the reaction.

pIC50	Structure (SMILES)
6.00 to 8.00	CCC(C(=O)O)c1ccc([C@@H](CO)NC(=O)c2cc3c(Cl)c(Cl)c(OC)cc3n2C)cc1 (mixture of isomers) [Compound I-4, (±)-2-[4-[(1S)-1-[(4,5-dichloro-6-methoxy-1-methyl-indole-2-carbonyl)amino]-2-hydroxy-ethyl]phenyl]butanoic Acid]
6.00 to 8.00	CCC(C(=O)O)c1ccc([C@@H](CO)NC(=O)c2cc3c(Cl)c(OC)ccc3n2C)cc1 (mixture of isomers) [Compound I-5, (±)-2-[4-[(1S)-1-[(4-chloro-5-methoxy-1-methyl-indole-2-carbonyl)amino]-2-hydroxy-ethyl]phenyl]butanoic Acid]
6.00 to 8.00	CCC(C(=O)O)c1ccc([C@@H](CO)NC(=O)c2cc3c(Cl)c(Cl)ccc3n2C)cc1 (mixture of isomers) [Compound I-15, (±)-2-[4-[(1S)-1-[(4,5-dichloro-1-methyl-indole-2-carbonyl)amino]-2-hydroxy-ethyl]phenyl]butanoic Acid]
6.00 to 8.00	CC(NC(=O)c1cc2c(Cl)c(Cl)ccc2n1C)c1ccc(CC(=O)O)cc1 (racemic) [Compound I-34, (±)-2-(4-(1-(4,5-Dichloro-1-methyl-1H-indole-2-carboxamido)ethyl)phenyl) acetic Acid]
5.30 to 6.00	Cn1c(C(=O)NC(c2ccc(C(=O)O)cc2)C(F)(F)F)cc2c(Cl)c(Cl)ccc21 (racemic) [Compound I-38, (±)-4-(1-(4,5-Dichloro-1-methyl-1H-indole-2-carboxamido)-2,2,2-trifluoroethyl)benzoic Acid]
6.00 to 8.00	CC(C)C(C(=O)O)c1ccc([C@@H](CO)NC(=O)c2cc3c(Cl)c(Cl)ccc3n2C)cc1 (mixture of isomers) [Compound I-56, (±)-2-[4-[(1S)-1-[(4,5-dichloro-1-methyl-indole-2-carbonyl)amino]-2-hydroxy-ethyl]phenyl]-3-methyl-butanoic Acid]
6.00 to 8.00	CC(C)C(C(=O)O)c1ccc([C@@H](CO)NC(=O)c2cc3c(Cl)c(Cl)ccc3n2C)cc1 (single isomer, unassigned) [Compound I-54, (2R or 2S)-2-[4-[(1S)-1-[(4,5-dichloro-1-methyl-indole-2-carbonyl)amino]-2-hydroxy-ethyl]phenyl]-3-methyl-butanoic acid]
6.00 to 8.00	Cn1c(C(=O)N[C@H](CO)c2ccc(C(C)(C)C(=O)O)cc2)cc2c(Cl)c(Cl)ccc21 [Compound I-1]
6.00 to 8.00	COc1ccc2c(cc(C(=O)N[C@H](CO)c3ccc(C(C)(C)C(=O)O)cc3)n2C)c1Cl [Compound I-2]
6.00 to 8.00	Cn1c(C(=O)N[C@H](CO)c2ccc(C3(C(=O)O)CC3)cc2)cc2c(Cl)c(Cl)ccc21 [Compound I-3]
6.00 to 8.00	Cn1c(C(=O)NC(CF)c2ccc(C(=O)O)cc2)cc2c(Cl)c(Cl)ccc21 (centres unmarked) [Compound I-6]
6.00 to 8.00	COc1cc2c(cc(C(=O)N[C@H](CO)c3ccc(C(=O)O)cc3C)n2C)c(Cl)c1Cl [Compound I-7]
6.00 to 8.00	COc1cc2c(cc(C(=O)N[C@H](CO)c3ccc(C(=O)O)cc3C)n2C)c(Cl)c1C [Compound I-8]
6.00 to 8.00	COc1ccc2c(cc(C(=O)N[C@H](CO)c3ccc(CC(=O)O)cc3Cl)n2C)c1Cl [Compound I-9, 2-{3-chloro-4-[(1S)-1-[(4-chloro-5-methoxy-1-methyl-1H-indol-2-yl)formamido]-2-hydroxyethyl]phenyl}acetic acid]
6.00 to 8.00	Cn1c(C(=O)N[C@H](CO)c2ccc(CC(=O)O)cc2Cl)cc2c(Cl)c(Cl)ccc21 [Compound I-10, 2-{3-chloro-4-[(1S)-1-[(4,5-dichloro-1-methyl-1H-indol-2-yl)formamido]-2-hydroxyethyl]phenyl}-acetic acid]
6.00 to 8.00	COc1ccc2c(cc(C(=O)N[C@H](CO)c3ccc(C(=O)O)cc3C)n2C)c1Cl [Compound I-11]

Same assay, conditions: read-out: FL Diaphorase 500 μM NAD (PHGDH activity inhibition, IC50), 5 nM PHGDH, 30° C., 60 minutes

pIC50	Structure (SMILES)
6.00 to 8.00	CC(C)C(C(=O)O)c1ccc([C@@H](CO)NC(=O)c2cc3c(Cl)c(Cl)ccc3n2C)cc1 (single isomer, unassigned) [Compound I-55, (2S or 2R)-2-[4-[(1S)-1-[(4,5-dichloro-1-methyl-indole-2-carbonyl)amino]-2-hydroxy-ethyl]phenyl]-3-methyl-butanoic acid]

From patent US11535593B2, “3-phosphoglycerate dehydrogenase inhibitors and uses thereof” (Raze Therapeutics, Inc., priority 2016, dated 2022)
